PMC9644404, “Mechanistic Insights into the Activation of Lecithin–Cholesterol Acyltransferase in Therapeutic Nanodiscs Composed of Apolipoprotein A-I Mimetic Peptides and Phospholipids” (Molecular Pharmaceutics, 2022)

Key:
LCAT [1] = test: QCM: LCAT binding to peptide-lipid nanodiscs on sensor; set-up: species or system human; conditions: for adsorption of LCAT on the discs (in words): 10 nM LCAT in PBS, 20 °C, versus 22A; for estimated number of LCAT enzymes bound per disc: calculated from adsorbed mass after LCAT injection (10 nM LCAT in PBS, 75 μL/min, 17 min, 20 °C), DMPC nanodiscs, three measurements
From the text: (§1) ApoA-I mimetic peptides 22A ([…]), 22A-K22Q ([…]), and 22A-R7Q ([…]) were obtained from Peptide Protein Research Ltd. (Fareham, UK). 1,2-Dimyristoyl-sn-glycerol-3-phosphocholine (DMPC), 1,2-dipalmitoyl-sn-glycerol-3-phosphocholine (DPPC), and ergosta-5,7,9,(11),22-tetra-3beta-ol (dehydroergosterol, DHE) were purchased from Avanti Polar Lipids Inc. (Alabaster, AL). Recombinant human lecithin cholesterol acyltransferase (LCAT) was synthesized by ProSpec-Tany TechnoGene Ltd. (East Brunswick, NJ). Cholesterol oxidase (COx) was obtained from Sigma-Aldrich (St. Louis, MO).
Before QCM measurements, the LCAT stock solution was prepared by dissolving 10 μg of LCAT in 500 μL of PBS. The solution was centrifuged (14 000g) twice through Amicon Ultra-0.5, 10 kDa cutoff filter (Sigma-Aldrich) for buffer exchange and purification. The retentate was diluted to a total volume of 500 μL (PBS) after each step. Prepared 20 μg/mL (∼430 nM) LCAT solution was stored in −20 °C before further use.
(§2) Impedance-based QCM instrument QCM-Z500 (KSV Instruments Ltd., Helsinki, Finland) was used for the measurements. The temperature was kept constant at 20 °C. Before measurements, silica-coated sensors (Q-Sense Inc./Biolin Scientific, Västra Frölunda, Sweden) were flushed with 70% (v/v) ethanol and ultrapure water, dried under nitrogen flow, and oxygen-plasma-treated (PDC-002; Harrick Plasma, Ithaca, NY) for 5 min at 29.6 W and 133–173 Pa. Samples were injected into the flow channel using a peristaltic pump system. After the baseline of the signal at different frequency overtones (3, 5, and 7) was stabilized in PBS, a nanodisc surface was formed by flowing nanodisc solution (0.15 mg/mL in PBS, 150 μL/min) on the sensor for 5 min, until the signal was again stabilized. Flow speed was then decreased to 75 μL/min for 5 min of flow with PBS to ensure a solid, uniform nanodisc surface. Next, 10 nM (0.47 μg/mL) LCAT was then injected through the flow channel at 75 μL/min for 17 min. Then, the running solution was again changed to PBS to see the frequency signal stabilize. All measurements were performed three times; between measurements, the sensor and the flow channel were cleaned in situ by 3 min sequential injections of 20 mM CHAPS, 2% (v/v) Hellmanex, 70% (v/v) ethanol, and ultrapure water at 150 μL/min. Frequency overtone signals were normalized, baseline corrected, and averaged for each measurement.

[2] = test system: recombinant human lecithin cholesterol acyltransferase (LCAT); test: LCAT activity assay (DHE esterification in DMPC/DHE/peptide nanodiscs); type: biochemical; conditions: relative to 22A, 30 min; for LCAT activity (in words): pH 7.4, 37 °C, fluorescence
From the text: as §1
The LCAT activity assay relies on the integration of DHE in the nanodisc structure as a substrate for LCAT. DHE is a naturally occurring fluorescent sterol analog; the presence of three conjugated double bonds in the steroid ring system gives this probe a slight fluorescence in the near-UV region of the spectrum.[42] As a consequence of the acyltransferase activity of LCAT, DHE in the PL bilayer is stored in the inner core of sHDL as DHE-ester. The esterification of DHE causes a shift in the sterol analog emission wavelength from 372 to 425 nm; this shift, together with the use of COx, which selectively renders the unesterified DHE nonfluorescent, allows the exclusive detection and quantification of the DHE-ester. This provides information about the LCAT–sHDL interaction and activity.[43],[44] sHDL containing the fluorescent sterol DHE for LCAT activity assay was prepared via thermal cycling method. In a glass vial, DMPC and DHE in chloroform were combined at a 9:1 molar ratio and were first dried with Rotavapor R-200 at room temperature for 1–2 h and then an additional 1 h under nitrogen flow at room temperature. […] After this, the plates went through a second round of incubation at 37 °C with gentle shaking (250 rpm/h) for 1 h to extinguish the fluorescence of unesterified DHE. After re-equilibrating the plate at room temperature, DHE fluorescence was detected at an excitation wavelength of 325 nm and an emission wavelength of 425 nm using Varioskan LUX (Thermo Scientific, Waltham, MA). […]

[3] = QCM: adsorption of nanodiscs on silica sensor; type: physicochemical; conditions: nanodiscs 0.15 mg/mL in PBS, 150 μL/min, 5 min, 20 °C, versus 22A
Protocol: as §2, with “Frequency overtone signals were normalized, baseline corrected, and averaged for each measurement.” left out

LCAT [4] = conditions: cited from earlier work
From the text: Therefore, this has long been a sought-after property of synthetic HDL-mimetic nanodiscs and apoA-I mimetic peptides. The nativelike maturation of the nanodiscs by lecithin–cholesterol acyltransferase (LCAT) has been regarded as a desired feature as it would lead to the esterification of free CHOL and the formation of hydrophobic cholesteryl ester (CE)-rich core. […] The ... || To investigate the location, conformation, and dynamics of apoA-Imimetic peptides in nanodiscs in silico, we complexed coarse-grained models of DMPC lipids with models of apoA-Imimetic peptides 22A and 22A-K and simulated the systems up to 80 μs, measured in the effective Martini force field time. To prepare the systems, 200 lipids and 28 peptides were placed randomly into the simulation box, and after a short vacuum simulation to compress them, the systems were solvated. Equilibrated nanodiscs formed rapidly after starting the production runs. The proteolytic removal of C-terminal lysine of 2 ... || (+ 2 further places)

LCAT [5] = conditions: cited from earlier work; remark: listed apart in the source
From the text: The ... || The formation of acyl intermediate of LCAT requiring the entry of PCs into the active site is another important factor in LCAT activity. […] We have also ...

## PVLDLFQELLNELLEALKQKLK [22A-R7Q, 22A variant with charge neutralization of residue R7]
LCAT [1]
  adsorption of LCAT on the discs (in words): reduced the adsorption of LCAT on the discs
  estimated number of LCAT enzymes bound per disc: one LCAT was attached to every five nanodiscs
[2]
  LCAT activity (in words): nearly identical activity with 22A
[3]
  adsorption of nanodiscs on the sensor (in words): decreased adsorption of nanodiscs on the sensor

## PVLDLFRELLNELLEALKQKL [22A-K, 22A without C-terminal lysine K22]
LCAT [4]; 22A without C-terminal K22 versus 22A
  decrease of CHOL esterification on removal of K22: ~60%
LCAT [4]; proteolytic removal in serum
  LCAT activation on removal of C-terminal lysine (in words): significantly reduces LCAT activation
LCAT [5]
  effect on phospholipolytic action of LCAT on removal of K22 (in words): no effect on phospholipolytic action mediated by LCAT

## PVLDLFRELLNELLEALKQKLK [22A, apoA-I mimetic peptide 22A (Esperion Therapeutics, ESP24218)]
LCAT [1]
  estimated number of LCAT enzymes bound per disc: approximately one LCAT was bound to every two nanodiscs
LCAT [4]; versus native apoA-I
  LCAT activation (in words): activate LCAT nearly as well as native apoA-I

## PVLDLFRELLNELLEALKQKLQ [22A-K22Q, 22A variant with charge neutralization of residue K22]
LCAT [1]
  adsorption of LCAT on the discs (in words): reduced the adsorption of LCAT on the discs
  estimated number of LCAT enzymes bound per disc: one LCAT was attached to every five nanodiscs
[2]; lipid:peptide 2:1 w/w, DHE 0-35 μM, LCAT 7 μg/mL, PBS + 1 mM EDTA + 60 μM albumin pH 7.4, 37 °C, fluorescence 325/425 nm, triplicate, two independent experiments
  decrease of LCAT activity: 50%
[2]
  LCAT activity (in words): decreased the LCAT activation potency
[3]
  adsorption of nanodiscs on the sensor (in words): decreased adsorption of nanodiscs on the sensor
